The text below walks through data of article PMC10177516, “Design and Biological Evaluation of Small-Molecule PET-Tracers for Imaging of Programmed Death Ligand 1” (Cancers, 2023).

The logD is the decadic logarithm of the distribution of all forms, ionised or not, between an organic phase and buffer at a given pH. As a reminder, the IC50 is the concentration that gives 50% inhibition.

The nature of series [1]: log D7.4 determination, shake-flask n-octanol/PBS. The class given is physicochemical. To be noted: ^64Cu-labeled, n-octanol/PBS pH 7.4, mean ± SD, n=3. On the procedure: n-Octanol/water distribution coefficients (log D7.4) were determined using the shake-flask method and performed in triplicate. Twenty µL of the reaction mixture was added to a 1.5 mL Eppendorf Tube containing 580 µL of 1× PBS (pH 7.4) and 600 µL n-octanol. The two-phase system was shaken at room temperature with 1500 rpm for 5 min. After centrifugation, an aliquot of each phase was withdrawn, and the count rates were measured in a γ-counter (ISOMED2160 sodium iodide crystal detector). The average was calculated, corrected for background activity, and the log D7.4 value was calculated according to the formula: logD7.4=logAn−octanol/APBS .

The nature of series [2]: Proteolytic stability in human serum, radio-HPLC. The class given is in vitro ADME. The settings on record: ^177Lu-labeled, throughout the study (up to seven days). The protocol: The corresponding radiotracer was labeled with approx. 50 MBq of ^177Lu in 200 µL HEPES solution (pH 4) as described above. After successful labeling, the reaction mixture was diluted 1:10 with human serum. The solution was incubated at 37 °C with shaking at 500 rpm. After 1 h, 24 h, 48 h, 72 h, and 7 d, a 1 µL aliquot was analyzed by radio-TLC as described above. Evaluation and graphical plotting were performed with OriginPro® 9.0.
For investigation by radio-HPLC, a chloroform–methanol precipitation was carried out at each time point. An aliquot (100 µL) of the serum-containing incubation reaction was mixed with 400 µL of MeOH. Then, 100 µL of chloroform were added and the sample was vortexed well. For phase separation, 300 µL of ultrapure water were added, and the sample was vortexed vigorously and centrifuged for 2 min at 14,000× g. The upper, aqueous layer was carefully removed and collected. To the lower chloroform phase and the interphase containing the precipitated proteins, 400 µL of MeOH was added. The sample was mixed and centrifuged again for 3 min at 14,000× g to pellet the proteins. […] Afterward, the clear supernatant was analyzed by radio-HPLC (system E). The peak areas were normalized by measuring the activity with the gamma counter (HIDEX Deutschland Vertrieb GmbH, Mainz, Germany) at the corresponding time point. Evaluation and graphical plotting were performed with OriginPro® 9.0.

Series [3] has as its system PC3 PD-L1 and PC3 mock tumors. Kind of series: Small animal PET/CT in tumor-bearing mice. The class given is in vivo, NMRI-nude mice. To be noted: blocking with 100 nmol of the respective unlabeled compound; PET. On the procedure:
Male athymic NMRI-nude mice (Rj:NMRI-Foxn1nu, Janvier Labs, Le Genest-Saint-Isle, France) between 8 and 22 weeks of age were used. Under general anesthesia, [~10% desflurane (Baxter, Deerfield, IL, USA) in 30 vol% oxygen + air] and warming, animals were subcutaneously injected with 3–5 × 10^6 PC3 PD-L1 and PC3 mock cells [in 50 µL PBS + 50 µL Matrigel (Corning, Glendale, CA, USA)] into the right and left thigh, respectively. Tumor growth was monitored three times a week by caliper measurements and mice with tumor sizes above 7 mm were included in the experiments.
For PET studies, general anesthesia was induced as described above. PET and X-ray computed tomography (CT) were performed in a dedicated small animal nanoScan PET/CT scanner, with 4 animals imaged simultaneously (Mediso, Budapest, Hungary). CT images were employed for attenuation correction and anatomical referencing. Animals received three individual scans corresponding to 0–2 h (dynamic), 4.5 h, and 24 h (static) post injection. […]
Three-dimensional volumes of interest were delineated applying fixed thresholding at 35% of the measured maximum intensity. Standardized uptake values (SUV = [MBq detected activity/mL tissue]/[MBq injected activity/g body weight], […]) were determined in selected volumes of interest, among these PD-L1 and mock tumors and metabolizing organs.

A further series relates to human serum proteins. Briefly: Serum protein binding, size-exclusion chromatography. The class given is in vitro ADME. The settings on record: ^177Lu-labeled; human serum 37 °C; 1 h. On the procedure:
The corresponding ligand was labeled with approx. 50 MBq of ^177Lu in 200 µL HEPES solution (pH 4) as described above. After successful labeling, 40 µL were mixed with 500 µL of human serum or 500 µL of 1 M HEPES solution (control), respectively. The samples were incubated at 37 °C with 500 rpm and were analyzed by size-exclusion chromatography (Jasco Germany GmbH, Pfungstadt, System F) and native discontinuous polyacrylamide gel electrophoresis (PAGE).
For size-exclusion chromatography, 20 µL aliquots were injected into system F and the obtained peak areas of serum-bound ligands and unbound ligands were used to calculate the percentage of radioligand bound to serum proteins. Evaluation and graphical plotting were performed with OriginPro® 9.0.
A general note: SEC sorts molecules by how far they enter the pores of the column.

The target in series [4] is T1, PD-L1 (Homo sapiens, UniProt Q9NZQ7).
T1 construct: expressed in transfected cells; host or cells: PC3 cells, lentiviral transduction (PC3-PD-L1)
Briefly: Real-time radioligand binding (LigandTracer) on PC3 PD-L1 overexpressing cells. The settings on record: for kon: read-out: ka (association rate constant); for koff: read-out: kd (dissociation rate constant). The protocol:
For binding kinetics (association rate constant ka and dissociation rate constant kd) and dissociation constant (KD), a real-time assay system (LigandTracer Yellow, Ridgeview Instruments AB, Uppsala, Sweden) was employed. In this system, the petri dish containing the cells in medium (3 mL) was located on one side, while radioactivity was detected on the opposite side. The dish rotated on an inclined base, which allowed continuously measuring two or more alternating parts of the dish for bound radioligand (cells) against background (no cells). Binding was performed at room temperature (using CO2-independent medium, Gibco #18045088, ThermoFisher Germany) with or without BSA (2.5%). Association was determined through incubation with two concentrations (10 and 40 nM, 90 min each) of our ^64Cu-labeled PD-L1 small molecules, binding to PC3 PD-L1 overexpressing cells. This was followed by replacement with fresh medium and measurement of dissociation for at least 2 h. This approach provided reliable kinetic measurements as previously shown. Data were acquired in decay-corrected counts per second (CPS). Binding data were then evaluated using TraceDrawer (1.9.2, Ridgeview Instruments AB, Uppsala, Sweden). Traces were imported, potential spikes (>100% sudden increases in CPS over previous datapoint) removed, and each trace was normalized to its own baseline (=0%) and highest value (=100%). The single experiment in the presence of 2.5% BSA was processed in the same way and analyzed for the same parameters, however without replicates.

In series [5] the target is T1, PD-L1. Briefly: Saturation binding assay (endpoint, with 2.5% BSA) on PD-L1-positive PC3 cells. On the procedure:
To determine the dissociation constant (KD) and number of binding sites (Bmax) of new PD-L1 small-molecule ligands, saturation binding was performed in at least 3 independent experiments. PC3 cells stably transduced with human PD-L1, cultured under conditions described above, were brought to room temperature followed by cooling on ice (each 15 min). The medium was removed and replaced with 200 µL assay buffer [PBS + 2.5% (w/v) bovine serum albumin (BSA; #1ETA, Carl Roth, Karlsruhe, Germany)] for total binding (TB) conditions or assay buffer containing 300 µM of 1 (in DMSO, resulting in 0.03% v/v, synthesized according to Supplementary Scheme S1) for assessment of nonspecific binding (NSB).
After 15 min preincubation for TB/NSB, 200 µL of each eight serial 1:1 dilutions (500 to 3.91 nM) of the respective radioligand were added (in triplicate). […] Radioactivity (counts per minute, CPM) of 400 µL of the lysate was measured in a gamma counter (Perkin Elmer Wizard 1480) using the nuclide-specific energy window. Additionally, we determined the binding to polystyrene in 400 µL of lysate and activity of stock solutions (50 µL). […] Protein content of the lysates (24 or 48 wells) was determined by BCA assay and a mean value (µg/mL) used for this particular dataset (plate). From CPM measurements, final values (pmol/mg protein) were calculated using mean protein content and molar activity. […]

The test system of series [6] is PD-L1. Details: method as in earlier work. To be noted: reported values; cited from earlier work.
Setting [7] is: medium only (no BSA), n = 2, mean ± S.D.

SMILES strings stand for the structures. Like-named read-outs stand apart in the source and are kept apart here. A value given as a limit tells only on which side of the number the result lay.

T1 sequence (Q9NZQ7 19-290): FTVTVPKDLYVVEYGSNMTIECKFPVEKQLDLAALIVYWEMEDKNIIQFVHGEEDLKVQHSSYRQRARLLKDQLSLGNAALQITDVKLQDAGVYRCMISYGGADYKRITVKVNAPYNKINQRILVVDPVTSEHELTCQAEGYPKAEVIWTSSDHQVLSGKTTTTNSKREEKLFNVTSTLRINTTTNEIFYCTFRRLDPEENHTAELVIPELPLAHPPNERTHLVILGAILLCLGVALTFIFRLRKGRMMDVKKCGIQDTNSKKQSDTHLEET

The compound `CN(CC(=O)NCC(S(=O)(=O)O)S(=O)(=O)O)Cc1cc(Cl)c(OCc2cccc(-c3cccc(OCc4cn(CCCC5CCN(C(=O)CN6CCN(CC(=O)O)CCN(CC(=O)O)CCN(CC(=O)O)CC6)CC5)nn4)c3)c2Br)cc1OCc1cncc(S(C)(=O)=O)c1` [42a] had a logD in series [1] of -2.73.
In the case of `CN(CC(=O)NCC(S(=O)(=O)O)S(=O)(=O)O)Cc1cc(Cl)c(OCc2cccc(-c3cccc(OCc4cn(CCOCCOCCN5CCN(C(=O)CN6CCN(CC(=O)O)CCN(CC(=O)O)CCN(CC(=O)O)CC6)CC5)nn4)c3)c2Br)cc1OCc1cncc(S(C)(=O)=O)c1` [42c], the intact radiotracer in series [2] is recorded as above 90%.
Take `Cc1c(COc2cc(OCc3cncc(S(C)(=O)=O)c3)c(CN(C)CC(=O)NCC(S(=O)(=O)O)S(=O)(=O)O)cc2Cl)cccc1-c1cccc(OCc2cn(CCCN3CCN(C(=O)CN4CCN(CC(=O)O)CCN(CC(=O)O)CCN(CC(=O)O)CC4)CC3)nn2)c1C` [43b]: the blocking effect entry in series [3] was “moderate blocking effect”.
`Cc1c(COc2cc(OCc3cncc(S(C)(=O)=O)c3)c(CN(C)CC(=O)NCC(S(=O)(=O)O)S(=O)(=O)O)cc2Cl)cccc1-c1cccc(OCc2cn(CCOCCOCCN3CCN(C(=O)CN4CCN(CC(=O)O)CCN(CC(=O)O)CCN(CC(=O)O)CC4)CC3)nn2)c1C` [43c] displayed a logD in series [1] of -3.5. Further, the intact radiotracer in series [2] is above 90%.
Take `Cc1c(COc2cc(OCc3cncc(C#N)c3)c(CN(C)CC(=O)NCC(S(=O)(=O)O)S(=O)(=O)O)cc2Cl)cccc1-c1cccc(OCc2cn(CCCN3CCN(C(=O)CN4CCN(CC(=O)O)CCN(CC(=O)O)CCN(CC(=O)O)CC4)CC3)nn2)c1C` [56a]: the “bound to human serum proteins (mean ± SD)” value (“bound … (mean ± SD)” below) in the series on human serum proteins is on record as 95.7%. The same compound showed an intact radiotracer in series [2] above 90%.
Regarding `Cc1c(COc2cc(OCc3cncc(C#N)c3)c(CN(C)CC(=O)NCC(S(=O)(=O)O)S(=O)(=O)O)cc2Br)cccc1-c1cccc(OCc2cn(CCCN3CCN(C(=O)CN4CCN(CC(=O)O)CCN(CC(=O)O)CCN(CC(=O)O)CC4)CC3)nn2)c1C` [56b], in the series on human serum proteins, the “bound … (mean ± SD)” value came to 94.6%. Moreover, the intact radiotracer in series [2] is reported as above 90%.
In the case of `Cc1c(COc2cc(OCc3cncc(C#N)c3)c(CN(C)CC(=O)NCC(S(=O)(=O)O)S(=O)(=O)O)cc2I)cccc1-c1cccc(OCc2cn(CCCN3CCN(C(=O)CN4CCN(CC(=O)O)CCN(CC(=O)O)CCN(CC(=O)O)CC4)CC3)nn2)c1C` [56c], the “bound … (mean ± SD)” value with human serum proteins was found to be 97.6%.
For `CCCC[C@H]1C(=O)N(C)[C@@H](CCCC)C(=O)N[C@@H](CCCNC(=O)CCC(C(=O)O)N2CCN(CC(=O)O)CCN(CC(=O)O)CCN(CC(=O)O)CC2)C(=O)N[C@H](C(=O)NCC(N)=O)CSCC(=O)N[C@@H](Cc2ccc(O)cc2)C(=O)N(C)[C@@H](C)C(=O)N[C@@H](CC(N)=O)C(=O)N2CCC[C@H]2C(=O)N[C@@H](Cc2c[nH]cn2)C(=O)N[C@@H](CC(C)C)C(=O)N2C[C@H](O)C[C@H]2C(=O)N[C@@H](Cc2c[nH]c3ccccc23)C(=O)N[C@@H](CO)C(=O)N[C@@H](Cc2cn(C)c3ccccc23)C(=O)N1C` (stereo partly drawn) [[^64Cu]Cu-DOTAGA-WL12, metal not drawn], on PD-L1 [4] (medium + 2.5% BSA, n = 1), the kon is 7460 M⁻¹ s⁻¹ and the koff was 6.74e-06 s⁻¹. Moreover, on PD-L1 [4] (setting [7]), the kon amounted to 12200 M⁻¹ s⁻¹ and the koff worked out at 9.77e-06 s⁻¹. Further, the logD in series [1] was -2.57 ± 0.02. Moreover, the “Bmax (maximum number of binding sites)” value at PD-L1 [5] (^64Cu complexes, saturation binding with 2.5% BSA, PD-L1-positive PC3 cells) amounted to 56.7 ± 3.87 pmol/mg. In addition, the “affinity, times worse than previously reported using SPR” value on PD-L1 [5] (saturation KD versus SPR value of ref 68) is “approximately 15 times”.
For `Cc1c(COc2cc(OCc3cncc(C#N)c3)c(CN(C)C(CO)(CO)CO)cc2Cl)cccc1-c1cccc(OCCCN2CCC(F)(F)C2)c1C` [compound 3], in the series on PD-L1 [6], the IC50 is 0.5 nM.
